≈ marks a conversion by molar mass, not a printed value.
Experiments:
Pseudomonas aeruginosa [1] = assay: Antibacterial activity against Pseudomonas aeruginosa PAO397 [PAO1 d(mexAB-oprM) d(mexCD-oprJ) d(mexEF-oprN) d(mexJKL) d(mexXY) d(opmH)] (CO-ADD:GN_211); MIC in CAMBH media using NBS plates, by OD(600); type: functional; conditions: ASSAY_TEST Inhibition of Bacterial Growth, detection method Absorption (OD600), MEDIA CAMHB, plate type 384well, CORNING #3640, time 18 hr
Klebsiella pneumoniae = assay: microbe, parasite or virus in culture; conditions: ATCC 700603, 18 h, ASSAY_TEST Inhibition of Bacterial Growth, detection method Absorption (OD600), MEDIA CAMHB, plate type 384well, NBS, CORNING #3640
Description: Antibacterial activity against Klebsiella pneumoniae MDR ATCC 70063 (CO-ADD:GN_003); MIC in CAMBH media using NBS plates, by OD(600)

Acinetobacter baumannii = assay: microbe, parasite or virus in culture; conditions: ATCC 19606, 18 h, ASSAY_TEST Inhibition of Bacterial Growth, detection method Absorption (OD600), MEDIA CAMHB, plate type 384well, NBS, CORNING #3640
Description: Antibacterial activity against Acinetobacter baumannii ATCC 19606 (CO-ADD:GN_034); MIC in CAMBH media using NBS plates, by OD600

Candida albicans = assay: microbe, parasite or virus in culture; conditions: ATCC 90028, ASSAY_TEST Inhibition of Fungal Growth, detection method Absorption (OD530), plate type 384well, NBS, CORNING #3640
Description: Antifungal activity against Candida albicans ATCC 90028 (CO-ADD:FG_001); MIC in YNB media using NBS plates, by OD630

HEK293 = assay: cells; type: functional, Homo sapiens, ATCC CRL1573; conditions: Homo sapiens, ATCC CRL1573, HEK293; ASSAY_TEST Inhibition of Cell Viability; detection method Resazurin; Fluorescence (ex560/em590); MEDIA DMEM with 10% FBS; plate type 384well; TC; CORNING #3712; time 18 hr; read-out: CC50
Escherichia coli = assay: microbe, parasite or virus in culture; conditions: ATCC 25922, 18 h, ASSAY_TEST Inhibition of Bacterial Growth, detection method Absorption (OD600), MEDIA CAMHB, plate type 384well, NBS, CORNING #3640
Description: Antibacterial activity against Escherichia coli ATCC 25922 (CO-ADD:GN_001); MIC in CAMBH media using NBS plates, by OD(600)

Staphylococcus aureus = assay: microbe, parasite or virus in culture; conditions: ATCC 43300, 18 h, ASSAY_TEST Inhibition of Bacterial Growth, detection method Absorption (OD600), MEDIA CAMHB, plate type 384well, NBS, CORNING #3640
Description: Antibacterial activity against Staphylococcus aureus MRSA ATCC 43300 (CO-ADD:GP_020); MIC in CAMBH media, using NBS plates, by OD(600)

Pseudomonas aeruginosa [2] = assay: microbe, parasite or virus in culture; conditions: ATCC 27853, 18 h, ASSAY_TEST Inhibition of Bacterial Growth, detection method Absorption (OD600), MEDIA CAMHB, plate type 384well, NBS, CORNING #3640
Description: Antibacterial activity against Pseudomonas aeruginosa ATCC 27853 (CO-ADD:GN_042); MIC in CAMBH media using NBS plates, by OD(600)

Description for Cryptococcus neoformans: Antifungal activity against Cryptococcus neoformans H99 ATCC 208821 (CO-ADD:FG_002); MIC in YNB media using NBS plates, by Resazurin OD(600-570)

| SMILES | MIC (Pseudomonas aeruginosa [1]) [µM] | MIC (Klebsiella pneumoniae) [µM] | MIC (Acinetobacter baumannii) [µM] | MIC (Candida albicans) [µM] | MIC (Cryptococcus neoformans) [µM] | MIC (Escherichia coli) [µM] | MIC (Staphylococcus aureus) [µM] | MIC (Pseudomonas aeruginosa [2]) [µM] | CC50 (HEK293) [µM] |
| --- | --- | --- | --- | --- | --- | --- | --- | --- | --- |
| COc1ccc(SC(=O)N[C@H](CCC(=O)O)C(=O)O)cc1 | > 20 | > 20 | > 20 | > 20 | > 20 | > 20 | > 20 | > 20 | > 20 |
| Fc1ccc2c(/C=C/c3nnn[nH]3)c[nH]c2c1 | > 20 | > 20 | > 20 | > 20 | > 20 | > 20 | > 20 | > 20 | > 20 |
| O=C(Nc1nnc(-c2ccccc2)o1)c1ccc(F)cc1 | > 20 | > 20 | > 20 | > 20 | 20 (≈ 5.67 µg/mL) | > 20 | 20 (≈ 5.67 µg/mL) | > 20 | > 20 |
| O=C(Nc1nnc(-c2ccc(Cl)cc2)o1)c1ccc(F)cc1 | > 20 | > 20 | > 20 | > 20 | > 20 | > 20 | > 20 | > 20 | > 20 |
| CCc1nc(N)nc(N)c1C#CC(C)c1cc(OC)cc(-c2ccncc2)c1 (stereo unspecified) | > 20 | > 20 | > 20 | > 20 | > 20 | > 20 | 2.5 (≈ 0.934 µg/mL) | > 20 | 6.39 |
| Cc1ccc(NC(=O)c2cc(Cl)ccc2O)cc1 | > 20 | > 20 | > 20 | > 20 | > 20 | > 20 | > 20 | > 20 | 3.91 |
| O=C(Nc1ncc(Cc2cccc3ccccc23)s1)C1CCCCC1 | > 20 | > 20 | > 20 | > 20 | > 20 | > 20 | > 20 | > 20 | > 20 |
| CC1(C)Cc2c(C#N)c(SCCc3ccccc3)nc(N3CCOCC3)c2CO1 | > 20 | > 20 | > 20 | > 20 | > 20 | > 20 | > 20 | > 20 | > 20 |
| CC(Cc1ccccc1)C(=O)Nc1ccc(Cl)cc1C(=O)O (stereo unspecified) | > 20 | > 20 | > 20 | > 20 | > 20 | > 20 | > 20 | > 20 | > 20 |
| O=C(O)C(Cc1c[nH]c2ccccc12)N1C(=O)c2ccccc2C1=O (stereo unspecified) | > 20 | > 20 | > 20 | > 20 | > 20 | > 20 | > 20 | > 20 | > 20 |
| O=C1NC(=O)C(Br)=C1Br | > 20 | > 20 | > 20 | 20 (≈ 5.1 µg/mL) | 10 (≈ 2.55 µg/mL) | > 20 | > 20 | > 20 | 3.28 |
| Cc1c(CN(C)C(=O)/C=C/c2cnc3c(c2)C(C)(C)C(=O)N3)oc2ccccc12 | > 20 | > 20 | > 20 | > 20 | > 20 | > 20 | 1.25 (≈ 0.487 µg/mL) | > 20 | > 20 |
| O=S(=O)(Nc1ccccc1)c1ccc(NC(=S)Nc2ccccc2)cc1 | > 20 | > 20 | > 20 | > 20 | > 20 | > 20 | > 20 | > 20 | > 20 |
| N#CCN1C(=O)COc2cc(F)c(N3C(=O)c4ccccc4C3=O)cc21 | > 20 | > 20 | > 20 | > 20 | > 20 | > 20 | > 20 | > 20 | > 20 |
| O=C(c1ccccc1)N1CCN(c2ccccc2NC(=O)C(Cl)(Cl)Cl)CC1 | > 20 | > 20 | > 20 | > 20 | > 20 | > 20 | > 20 | > 20 | > 20 |
| OC1O[C@H](CSc2ccc(F)cc2)[C@@H](O)[C@H]1O (stereo partly specified) | > 20 | > 20 | > 20 | > 20 | > 20 | > 20 | > 20 | > 20 | > 20 |
| CN(C)CCNC(=O)c1cccc2cccnc12 | > 20 | > 20 | > 20 | > 20 | > 20 | > 20 | > 20 | > 20 | > 20 |

Further lines, with some results ahead:

| MIC (Pseudomonas aeruginosa [1]) [µM] | MIC (Klebsiella pneumoniae) [µM] | MIC (Acinetobacter baumannii) [µM] | MIC (Candida albicans) [µM] | MIC (Cryptococcus neoformans) [µM] | MIC (Escherichia coli) [µM] | MIC (Staphylococcus aureus) [µM] | MIC (Pseudomonas aeruginosa [2]) [µM] | SMILES | CC50 (HEK293) [µM] |
| --- | --- | --- | --- | --- | --- | --- | --- | --- | --- |
| > 20 | > 20 | > 20 | > 20 | > 20 | > 20 | > 20 | > 20 | O=c1cc(Nc2ccc3ccccc3c2)[nH]c(=O)[nH]1 | > 20 |
| > 20 | > 20 | > 20 | > 20 | > 20 | > 20 | > 20 | > 20 | COc1ccc(NC(=O)c2cc3ccccn3n2)cc1 | > 20 |
| > 20 | > 20 | > 20 | > 20 | > 20 | > 20 | > 20 | > 20 | COc1ccc2nc(-c3ccccc3)cc(O)c2c1 | 2.85 |
| > 20 | > 20 | > 20 | > 20 | > 20 | > 20 | > 20 | > 20 | CC(C)n1cnc2c(NCc3ccccc3)nc(NCc3ccccc3)nc21 | > 20 |
| > 20 | > 20 | > 20 | > 20 | > 20 | > 20 | > 20 | > 20 | O=C(Nc1ccc(F)cc1)c1nn(-c2ccccc2)c(=O)cc1Cl | 8.2 |
| > 20 | > 20 | > 20 | > 20 | > 20 | > 20 | > 20 | > 20 | CCOC(=O)N1CCN(c2ccc(Cl)cc2)CC1 | > 20 |
| > 20 | > 20 | > 20 | > 20 | > 20 | > 20 | > 20 | > 20 | COc1ccc(C)cc1NC(=O)c1ccc(S(=O)(=O)N2CCCCC2)cc1 | > 20 |
| > 20 | > 20 | > 20 | > 20 | > 20 | > 20 | > 20 | > 20 | O=C(Cc1ccccc1F)Nc1nc2ccccc2[nH]1 | > 20 |
| > 20 | > 20 | > 20 | > 20 | > 20 | > 20 | > 20 | > 20 | CC(=O)N[C@H](C)C(=O)N[C@H](Cc1ccccc1)C(=O)O | > 20 |
| 2.5 (≈ 0.593 µg/mL) | 2.5 (≈ 0.593 µg/mL) | 5 (≈ 1.19 µg/mL) | > 20 | > 20 | 2.5 (≈ 0.593 µg/mL) | 20 (≈ 4.74 µg/mL) | 5 (≈ 1.19 µg/mL) | NC[C@H]1OB(O)c2c(OCCCO)cccc21 | > 20 |
| 20 (≈ 7.56 µg/mL) | > 20 | > 20 | > 20 | > 20 | > 20 | > 20 | > 20 | O=C1NC(=S)N/C1=C\c1cc(Br)cc(Br)c1O | > 20 |
| 0.625 (≈ 0.349 µg/mL) | 10 (≈ 5.59 µg/mL) | > 20 | > 20 | > 20 | 0.313 (≈ 0.175 µg/mL) | 0.312 (≈ 0.175 µg/mL) | 0.625 (≈ 0.349 µg/mL) | CN(C)[C@@H]1C(=O)C(C(N)=O)=C(O)[C@@]2(O)C(=O)C3=C(O)c4c(O)c(NC(=O)CN5CCCC5)cc(F)c4C[C@H]3C[C@@H]12 | > 20 |

— ChEMBL document CHEMBL4513161, “CO-ADD screening of MMV (CH) - Pandemic Response Box” (2021)
